Assay [1] deals with Herpes simplex virus Type II strain 333. The assay is described as follows: Antiviral activity in guinea pigs infected with Herpes simplex virus Type II (lesion inhibition). To be noted: oral once daily for four days. The format is in vivo. From the text:
Female Hartley guinea pigs weighing 200 to 250 g are anesthetized with methoxyflurane (available under the […] from Pitman-Moore, Inc., Washington Crossing, N.J.), after which the vaginal area is swabbed with a dry cotton swab. The guinea pigs are then infected intravaginally with a cotton swab saturated with Herpes simplex virus Type II strain 333 (1×10^5 plaque forming units/mL). Guinea pigs are assigned to groups of 7 animals; one group for each treatment and one to serve as a control (vehicle treated). The compounds of the invention are formulated in water containing 5% Tween 80 (a polyoxyethylene sorbitan monooleate available from Aldrich Chemical Company, Inc., Milwaukee, Wis.). The, guinea pigs are treated orally once daily for four consecutive days starting 24 hours after infection. Antiviral activity is evaluated by comparing lesion development in compound-treated versus vehicle-treated guinea pigs. […] The maximum lesion score of each guinea pig is used to calculate the percentage lesion inhibition. The percentage lesion inhibition is calculated as follows: […]

Assay [2] relates to interferon. The assay is described as follows: Interferon induction in guinea pigs (serum interferon titer). The format is in vivo. Particulars: guinea pig serum 24 hours after initial oral dose. The text has this:
Female Hartley guinea pigs weighing 200 to 250 g are anesthetized with methoxyflurane (available under the […] from Pitman-Moore, Inc., Washington Crossing, N.J.), after which the vaginal area is swabbed with a dry cotton swab. The guinea pigs are then infected intravaginally with a cotton swab saturated with Herpes simplex virus Type II strain 333 (1×10^5 plaque forming units/mL). Guinea pigs are assigned to groups of 7 animals; one group for each treatment and one to serve as a control (vehicle treated). The compounds of the invention are formulated in water containing 5% Tween 80 (a polyoxyethylene sorbitan monooleate available from Aldrich Chemical Company, Inc., Milwaukee, Wis.). The, guinea pigs are treated orally once daily for four consecutive days starting 24 hours after infection. Twenty-four hours after the initial dose of test compound has been administered, blood is obtained from 3 guinea pigs from each treatment group by cardiac puncture of methoxyflurane anesthetized animals. Blood is pooled and allowed to clot at room temperature. After low speed centrifugation, serum is collected and stored at -70° C. until analysis. Interferon levels in the guinea pig serum are determined in a standard microtiter assay using transformed guinea pig cells (ATCC CRL 1405). The interferon assay is done in 96 well microtiter plates. Confluent monolayers of transformed guinea pig cells are treated with dilutions of guinea pig serum made with medium 199 (GIBCO, Grand Island, N.Y.). The cell and serum dilutions are incubated at 37° C. overnight. The following day, the medium and serum are removed and about 10 plaque forming units of Mengovirus are added to each well. Controls consist of wells that receive no guinea pig serum (virus positive control) and wells that receive no virus (virus negative control). Cells and virus are incubated for 2 to 3 days at 37° C. before quantifying for viral cytopathic effect. The viral cytopathic effect is quantified by staining with 0.05% crystal violet followed by spectrophotometric absorbance measurements. The titer of interferon in serum is expressed as units/mL and is the reciprocal of the highest dilution that protects cells from virus.

Assay [3] concerns interferon-α. The assay is described as follows: Interferon-α induction in human cells, PBM. The format is cell-based. To be noted: 24 hours.
Assay [4] relates to interferon-α. The assay is described as follows: Interferon-α induction in human cells, diluted whole blood. The format is cell-based. To be noted: 24 hours.
In assay [5] the test system is interferon. The assay is described as follows: Interferon induction in mice. The format is in vivo. To be noted: mouse serum. The procedure, abridged:
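Mouse serum collected at 1, 2 and 4 h (separate groups), pooled, stored at −70° C, then assayed as for human-cell interferon. Values in α/β reference units/mL against a mouse MU-1-IF standard; "<" marks levels below assay sensitivity.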

Another assay relates to MC-26 colon tumor cells. The assay is described as follows: Inhibition of MC-26 tumors in mice, 14 day lung colony count. The assay is classed as in vivo. Particulars: lung colonies day 14, 4×10^4 MC-26 cells i.v., oral 30 mg/kg on days 3-7 and 10-14; control 385 ± 31. As to the method: The mice are sacrificed 14 days later. […] Five mice are in each treatment group and comparisons are made to controls. […] The mice in the control groups were dosed orally with saline (10 mL/kg) on days 3, 4, 5, 6, and 7, and with water (10 mL/kg) on days 10, 11, 12, 13, and 14.

Assay [6] deals with vesicular stomatitis virus (VSV). The assay is described as follows: microbe, parasite or virus in culture. The assay is classed as cell-based. To be noted: Vesicular stomatitis virus, read-out: VSV Yield Inhibition.

`CC(C)Cn1c(CN=[N+]=[N-])nc2c(N)nc3ccccc3c21` [Example 11, 2-Azidomethyl-1-(2-methylpropyl)-1H-imidazo-[4,5-c]quinolin-4-amine]: the “% Lesion Inhibition” value in assay [1] (dose 0.1 mg/kg) came to 50%; in assay [1] (dose 0.5 mg/kg), 100%; in assay [1] (dose 1 mg/kg), 100%. Besides, the “Reference Units/mL (interferon in serum)” value in the assay on interferon [2] (0.5 mg/kg) and in the assay with interferon [2] (1 mg/kg) was >12,800 Units/mL in each case. Besides, the Interferon-α induction with interferon-α [3] (dose concentration 0.01 μg/mL) is on record as 330 α Reference Units/mL; in the assay with interferon-α [3] (dose concentration 0.05 μg/mL), 330 α Reference Units/mL; with interferon-α [3] (dose concentration 0.10 μg/mL) it was 570 α Reference Units/mL; in the assay with interferon-α [3] (dose concentration 0.50 μg/mL), 570 α Reference Units/mL; with interferon-α [3] (dose concentration 1.0 μg/mL), 570 α Reference Units/mL; in the assay with interferon-α [3] (dose concentration 5.0 μg/mL), 570 α Reference Units/mL. For the same compound, the Interferon-α induction in the assay with interferon-α [4] (dose concentration 0.10 μg/mL) was 330 α Reference Units/mL; with interferon-α [4] (dose concentration 0.50 μg/mL), 330 α Reference Units/mL; in the assay on interferon-α [4] (dose concentration 1.0 μg/mL) it was 250 α Reference Units/mL; in the assay with interferon-α [4] (dose concentration 5.0 μg/mL), 140 α Reference Units/mL. Besides, the “Interferon induction in mice” value with interferon [5] (oral 1 mg/kg, 1 hr) is listed as 280 Reference Units/mL; in the assay on interferon [5] (oral 1 mg/kg, 2 hr), 1100 Reference Units/mL; with interferon [5] (oral 1 mg/kg, 4 hr) it was 71 Reference Units/mL; with interferon [5] (oral 3 mg/kg, 1 hr) it was 490 Reference Units/mL; in the assay on interferon [5] (oral 3 mg/kg, 2 hr) it was 1900 Reference Units/mL; with interferon [5] (oral 3 mg/kg, 4 hr), 30 Reference Units/mL. In addition, the “Interferon induction in mice” value in the assay on interferon [5] (oral 10 mg/kg, 1 hr) is 1100 Reference Units/mL; in the assay with interferon [5] (oral 10 mg/kg, 2 hr), 2500 Reference Units/mL; in the assay on interferon [5] (oral 10 mg/kg, 4 hr), 280 Reference Units/mL; in the assay on interferon [5] (oral 30 mg/kg, 1 hr), 850 Reference Units/mL; in the assay on interferon [5] (oral 30 mg/kg, 2 hr), 2500 Reference Units/mL; with interferon [5] (oral 30 mg/kg, 4 hr), 40 Reference Units/mL. Also, the “Number of Colonies” value in the assay with MC-26 colon tumor cells is given as 204 ± 28.
In the case of `CC(C)Cn1c(CN2CCOCC2)nc2c(N)nc3ccccc3c21` [Example 12, 1-(2-Methylproyl)-2-morpholinomethyl-1H-imidazo-[4,5-c]quinolin-4-amine], the results for the “% Lesion Inhibition” value in assay [1] (dose 0.5 mg/kg) and in assay [1] (dose 2 mg/kg) were 82% and 100%, respectively. Also, the “Reference Units/mL (interferon in serum)” value in the assay on interferon [2] (0.5 mg/kg) and in the assay on interferon [2] (2 mg/kg) was >12,800 Units/mL in each case. Moreover, the Interferon-α induction is on record as <1.8 α Reference Units/mL in the assay with interferon-α [4] (dose concentration 0.10 μg/mL), 37 α Reference Units/mL with interferon-α [4] (dose concentration 0.50 μg/mL), 140 α Reference Units/mL with interferon-α [4] (dose concentration 1.0 μg/mL) and 330 α Reference Units/mL in the assay with interferon-α [4] (dose concentration 5.0 μg/mL). Besides, the “Interferon induction in mice” value was 94 Reference Units/mL with interferon [5] (oral 1 mg/kg, 1 hr); 160 Reference Units/mL with interferon [5] (oral 1 mg/kg, 2 hr); under 18 Reference Units/mL in the assay with interferon [5] (oral 1 mg/kg, 4 hr); 54 Reference Units/mL in the assay on interferon [5] (oral 3 mg/kg, 1 hr); 40 Reference Units/mL in the assay on interferon [5] (oral 3 mg/kg, 2 hr); under 18 Reference Units/mL in the assay on interferon [5] (oral 3 mg/kg, 4 hr). Moreover, the “Interferon induction in mice” value with interferon [5] (oral 10 mg/kg, 1 hr) turned out to be 850 Reference Units/mL; in the assay on interferon [5] (oral 10 mg/kg, 2 hr), 850 Reference Units/mL; in the assay with interferon [5] (oral 10 mg/kg, 4 hr), 40 Reference Units/mL; in the assay on interferon [5] (oral 30 mg/kg, 1 hr), 850 Reference Units/mL; in the assay on interferon [5] (oral 30 mg/kg, 2 hr), 5800 Reference Units/mL; in the assay with interferon [5] (oral 30 mg/kg, 4 hr) it was 40 Reference Units/mL. In addition, the “Number of Colonies” value in the assay with MC-26 colon tumor cells was 149 ± 21.
For the compound `CSCc1nc2c(N)nc3ccccc3c2n1Cc1ccccc1` [Example 31, 2-Methylthiomethyl-1-phenylmethyl-1H-imidazo-[4,5-c]quinolin-4-amine], the Interferon-α induction in the assay with interferon-α [3] (dose concentration 0.01 μg/mL) is <4 α Reference Units/mL; in the assay with interferon-α [3] (dose concentration 0.05 μg/mL), 18 α Reference Units/mL; with interferon-α [3] (dose concentration 0.10 μg/mL), 2500 α Reference Units/mL; in the assay on interferon-α [3] (dose concentration 0.50 μg/mL) it was 370 α Reference Units/mL; with interferon-α [3] (dose concentration 1.0 μg/mL), 280 α Reference Units/mL; in the assay with interferon-α [3] (dose concentration 5.0 μg/mL) it was 370 α Reference Units/mL. The “Interferon induction in mice” value with interferon [5] (oral 0.3 mg/kg, 1 hr) is listed as under 61 Reference Units/mL; with interferon [5] (oral 0.3 mg/kg, 2 hr) it was under 61 Reference Units/mL; with interferon [5] (oral 0.3 mg/kg, 4 hr), under 61 Reference Units/mL; in the assay on interferon [5] (oral 1 mg/kg, 1 hr), under 61 Reference Units/mL; with interferon [5] (oral 1 mg/kg, 2 hr), 140 Reference Units/mL; in the assay on interferon [5] (oral 1 mg/kg, 4 hr), “≦61 Reference Units/mL”. Moreover, the “Interferon induction in mice” value came to 420 Reference Units/mL in the assay on interferon [5] (oral 3 mg/kg, 1 hr); 420 Reference Units/mL in the assay with interferon [5] (oral 3 mg/kg, 2 hr); 320 Reference Units/mL in the assay on interferon [5] (oral 3 mg/kg, 4 hr); 960 Reference Units/mL in the assay with interferon [5] (oral 10 mg/kg, 1 hr); 5000 Reference Units/mL in the assay on interferon [5] (oral 10 mg/kg, 2 hr); 550 Reference Units/mL with interferon [5] (oral 10 mg/kg, 4 hr). For the same compound, in the assay on MC-26 colon tumor cells, the “Number of Colonies” value is 221 ± 37. For the same compound, the log reduction at 1 µg/mL in assay [6] is 5. The log reduction at 5 µg/mL in assay [6] is 5. Further, in assay [6], the log reduction at 10 µg/mL was determined as 6.
